Assay results as given in PubChem BioAssay AID1919000 (Molecular Pharmacology Branch, DTP, NCI, 2023).

System: 653999-131-R-J2-PDC complex spheroids, growth % test/control
Assay: Anticancer human tumor 653999-131-R-J2-PDC patient-derived lung adenocarcinoma cell line growth inhibition [AhR]
Conditions: for IC50: curve of first compound; for viability, T/C: stronger effect = lower value
Procedure, shortened: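 Complex tumor spheroids co-cultured with HUVEC and human MSC stroma; AhR antagonists tested in combination with standard-of-care and investigational agents. Top concentration at or near clinical Cmax (else 10 microM), half-log dilutions; growth expressed as percent test/control.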

[1] = second compound 0.1 µM, first compound 0.0316 µM
[2] = second compound 0.1 µM, first compound 0.1 µM
[3] = second compound 0.1 µM, first compound 0.316 µM
[4] = second compound 0.1 µM, first compound 1 µM
[5] = second compound 0.1 µM, first compound 3.16 µM
[6] = second compound 0.1 µM, first compound 10 µM
[7] = second compound 0.316 µM, first compound 0.0316 µM
[8] = second compound 0.316 µM, first compound 0.1 µM
[9] = second compound 0.316 µM, first compound 0.316 µM
[10] = second compound 0.316 µM, first compound 1 µM
[11] = second compound 0.316 µM, first compound 3.16 µM
[12] = second compound 0.316 µM, first compound 10 µM
[13] = second compound 1 µM, first compound 0.0316 µM
[14] = second compound 1 µM, first compound 0.1 µM
[15] = second compound 1 µM, first compound 0.316 µM
[16] = second compound 1 µM, first compound 1 µM
[17] = second compound 1 µM, first compound 3.16 µM
[18] = second compound 1 µM, first compound 10 µM
[19] = second compound 3.16 µM, first compound 0.0316 µM
[20] = second compound 3.16 µM, first compound 0.1 µM
[21] = second compound 3.16 µM, first compound 0.316 µM
[22] = second compound 3.16 µM, first compound 1 µM
[23] = second compound 3.16 µM, first compound 3.16 µM
[24] = second compound 3.16 µM, first compound 10 µM
[25] = second compound 10 µM, first compound 0.0316 µM
[26] = second compound 10 µM, first compound 0.1 µM
[27] = second compound 10 µM, first compound 0.316 µM
[28] = second compound 10 µM, first compound 1 µM
[29] = second compound 10 µM, first compound 3.16 µM
[30] = second compound 10 µM, first compound 10 µM
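Also: spheroids exposed to agents for seven days.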
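For viability, T/C in this document: 100% = DMSO vehicle control viability.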

Structure (SMILES)	IC50 (second compound 0.1 µM) [nM]	IC50 (second compound 0.316 µM) [nM]	IC50 (second compound 1 µM) [nM]	IC50 (second compound 3.16 µM) [nM]	IC50 (second compound 10 µM) [nM]	viability, T/C [1] [%]	viability, T/C [2] [%]	viability, T/C [3] [%]	viability, T/C [4] [%]	viability, T/C [7] [%]	viability, T/C [8] [%]	viability, T/C [9] [%]	viability, T/C [10] [%]	viability, T/C [13] [%]	viability, T/C [14] [%]	viability, T/C [15] [%]	viability, T/C [16] [%]	viability, T/C [19] [%]	viability, T/C [20] [%]	viability, T/C [21] [%]	further results
CC(C)c1c(-c2ccccc2)nc2c(C#N)c[nH]n2c1=O + CC(CO)NC(=O)c1cc(-c2ccc(Cl)cc2)nn(-c2cnn(C)c2)c1=O	> 10000	> 10000	> 10000	> 10000	> 10000	104	105	99.4	94.2	102	105	93.3	101	104	106	114	98	105	108	123	viability, T/C [5]: 93.3%; viability, T/C [6]: 90.9%; viability, T/C [11]: 93.8%; viability, T/C [12]: 99%; viability, T/C [17]: 97.9%; viability, T/C [18]: 95.4%; viability, T/C [22]: 93.6%; viability, T/C [23]: 92.2%; viability, T/C [24]: 91.9%; viability, T/C [25]: 104%; viability, T/C [26]: 116%; viability, T/C [27]: 100%; viability, T/C [28]: 102%; viability, T/C [29]: 95.4%; viability, T/C [30]: 96.7%
CC1COCCN1c1cc(-c2ccnn2C)c2ccnc(-c3ccn[nH]3)c2n1 (stereo not given) + CC(CO)NC(=O)c1cc(-c2ccc(Cl)cc2)nn(-c2cnn(C)c2)c1=O	162	134	168	100	53.6	94	60.2	36.4	28.4	76.1	56.5	36.3	27.9	80.6	60.1	39.5	30.4	89.9	49.9	35.6	viability, T/C (second compound 0.1 µM, first compound 0.00316 µM): 102%; viability, T/C (second compound 0.1 µM, first compound 0.01 µM): 101%; viability, T/C (second compound 0.316 µM, first compound 0.00316 µM): 103%; viability, T/C (second compound 0.316 µM, first compound 0.01 µM): 103%; viability, T/C (second compound 1 µM, first compound 0.00316 µM): 97.3%; viability, T/C (second compound 1 µM, first compound 0.01 µM): 105%; viability, T/C (second compound 3.16 µM, first compound 0.00316 µM): 94%; viability, T/C (second compound 3.16 µM, first compound 0.01 µM): 97.7%; viability, T/C [22]: 32.9%; viability, T/C (second compound 10 µM, first compound 0.00316 µM): 92.3%; viability, T/C (second compound 10 µM, first compound 0.01 µM): 86.4%; viability, T/C [25]: 57%; viability, T/C [26]: 41.5%; viability, T/C [27]: 30.7%; viability, T/C [28]: 29.2%
COc1ccc([C@@H](O)c2cc(-c3ncnc4cc(N5CCOCC5)ccc34)c(F)cc2Cl)nn1 + CC(CO)NC(=O)c1cc(-c2ccc(Cl)cc2)nn(-c2cnn(C)c2)c1=O	8450	7790	8130	7000	6940	91.5	86.9	85.4	73.6	89.9	90.2	87.8	80	90.4	95.4	95.2	84.5	96	96.8	100	viability, T/C [5]: 63.9%; viability, T/C [6]: 47.6%; viability, T/C [11]: 66.8%; viability, T/C [12]: 45.2%; viability, T/C [17]: 65.4%; viability, T/C [18]: 46.6%; viability, T/C [22]: 77.4%; viability, T/C [23]: 60.3%; viability, T/C [24]: 45.4%; viability, T/C [25]: 90%; viability, T/C [26]: 95.3%; viability, T/C [27]: 90.8%; viability, T/C [28]: 75.3%; viability, T/C [29]: 59.5%; viability, T/C [30]: 45.6%
COc1cccc2c1C(=O)c1c(O)c3c(c(O)c1C2=O)CC(O)(C(=O)CO)CC3OC1CC(N)C(O)C(C)O1 (stereo not given) + Cc1ccccc1N=Nc1ccc(NC(=O)c2ccnn2C)c(C)c1	< 31.6	< 31.6	< 31.6	95.9	129	50.3	44.6	25.8	9.24	50.5	40.8	29.3	9.21	48.8	44	28.6	10.4	55.6	47	32.6	viability, T/C [5]: 5.33%; viability, T/C [6]: 16.6%; viability, T/C [11]: 4.48%; viability, T/C [12]: 17.2%; viability, T/C [17]: 8.05%; viability, T/C [18]: 19.6%; viability, T/C [22]: 12.3%; viability, T/C [23]: 11.6%; viability, T/C [24]: 19.2%; viability, T/C [25]: 60.5%; viability, T/C [26]: 51%; viability, T/C [27]: 37.2%; viability, T/C [28]: 16.3%; viability, T/C [29]: 8.54%; viability, T/C [30]: 22.5%
